Results taken from patent US20220030868A1, “FUNGICIDAL HALOMETHYL KETONES AND HYDRATES” (FMC CORPORATION, priority 2018, published 2022).

Tests used:
[1] = tested on: Puccinia recondita f. sp. tritici; experiment: Test B: test suspension sprayed on wheat seedlings one day before inoculation with Puccinia recondita f. sp. tritici spores (wheat leaf rust), disease rating; assay type: in vivo; conditions: 100 = 100% disease control, 0 = no control
From the text: General protocol for preparing test suspensions for Tests A-C: the test compounds were first dissolved in acetone in an amount equal to 3% of the final volume and then suspended at the desired concentration (in ppm) in acetone and purified water (50/50 mix by volume) containing 250 ppm of the surfactant PEG400 (polyhydric alcohol esters). The resulting test suspensions were then used in Tests A-C. The test solution was sprayed to the point of run-off on wheat seedlings. The following day the seedlings were inoculated with a spore suspension of Puccinia recondita f. sp. tritici (the causal agent of wheat leaf rust) and incubated in a saturated atmosphere at 20° C. for 24 h, and then moved to a growth chamber at 20° C. for 6 days, after which time disease ratings were made. Results for Tests A-C are given in Table A. In the Table, a rating of 100 indicates 100% disease control and a rating of 0 indicates no disease control (relative to the controls). An asterisk “*” or a double asterisk “**” next to the rating value indicates a 50 ppm or 10 ppm test suspension was used, respectively. A dash (-) indicates the compound was not tested.

[2] = tested on: Phakopsora pachyrhizi; experiment: Test A: test suspension sprayed on soybean seedlings one day before inoculation with Phakopsora pachyrhizi spores (Asian soybean rust), visual disease rating; assay type: in vivo; conditions: 100 = 100% disease control, 0 = no control
From the text: General protocol for preparing test suspensions for Tests A-C: the test compounds were first dissolved in acetone in an amount equal to 3% of the final volume and then suspended at the desired concentration (in ppm) in acetone and purified water (50/50 mix by volume) containing 250 ppm of the surfactant PEG400 (polyhydric alcohol esters). The resulting test suspensions were then used in Tests A-C.
The test solution was sprayed to the point of run-off on soybean seedlings. The following day the seedlings were inoculated with a spore suspension of Phakopsora pachyrhizi (the causal agent of Asian soybean rust) and incubated in a saturated atmosphere at 22° C. for 24 h, and then moved to a growth chamber at 22° C. for 8 days, after which time visual disease ratings were made.
Results for Tests A-C are given in Table A. In the Table, a rating of 100 indicates 100% disease control and a rating of 0 indicates no disease control (relative to the controls). An asterisk “*” or a double asterisk “**” next to the rating value indicates a 50 ppm or 10 ppm test suspension was used, respectively. A dash (-) indicates the compound was not tested.

Row | Structure (SMILES) | Test B rating (disease control) ([1]; 10 ppm test suspension) [%] | Test A rating (disease control) ([2]; 10 ppm test suspension) [%] | also measured
1 | CCO/C(=C\Oc1ccc(Cn2ccc(C(=O)OCC(C)C)n2)cc1)C(F)(F)F [compound 357] | 9 | 100 | 
2 | CCO/C(=C\Oc1ccc(Cn2ccc(C(=O)OC(C)C)n2)cc1)C(F)(F)F [compound 327] | 0 | 100 | 
3 | CCOC(=O)c1ccn(Cc2ccc(O/C=C(\OCC)C(F)(F)F)cc2)n1 [Compound 231, ethyl 1-[[4-[[(1Z)-2-ethoxy-3,3,3-trifluoro-1-propen-1-yl]oxy]phenyl]methyl]-1H-pyrazole-3-carboxylate] |  |  | pest or weed control at 10 ppm ([1]; 10 ppm test suspension): 0%; pest or weed control at 10 ppm ([2]; Phakopsora pachyrhizi, 10 ppm test suspension): 100%
4 | CS(=O)(=O)c1ccc(OCC(O)(O)C(F)(F)F)cc1 [Compound 31] | 93 | 44 | 
5 | CCOC(=O)c1cnn(Cc2ccc(O/C=C(\OCCOC)C(F)(F)F)cc2)c1 [compound 54] | 0 | 0 | 
6 | CCOC(=O)c1ccnn1Cc1ccc(OCC(O)(O)C(F)(F)F)cc1 [Compound 234] |  |  | Test B rating (disease control) ([1]; 50 ppm test suspension): 92%; Test A rating (disease control) ([2]; 50 ppm test suspension): 100%
7 | CC(=O)c1ccc(OCC(O)(O)C(F)(F)F)cc1 [Compound 80] |  |  | Test B rating (disease control) ([1]; 50 ppm test suspension): 100%; Test A rating (disease control) ([2]; 50 ppm test suspension): 99%
8 | O=C(NCC1CC1)c1cnc(Cc2ccc(OCC3(C(F)(F)F)OCCO3)cc2)s1 [Compound 259] | 0 | 25 | 
9 | O=C(OCc1ccncc1)c1cnn(Cc2ccc(OCC3(C(F)(F)F)OCCO3)cc2)c1 [compound 201] | 0 | 100 | 
10 | O=C(c1csc(Cc2ccc(OCC(O)(O)C(F)(F)F)cc2)n1)N1CCC1 [Compound 215] | 55 | 80 | 
11 | CON(Cc1ccc(OCC2(C(F)(F)F)OCCO2)cc1)C(=O)C1CC1 [compound 236] | 0 | 75 | 
12 | CCO/C(=C\Oc1cccc(Cn2cc(C(=O)OCC3CCC3)cn2)c1)C(F)(F)F [compound 342] | 0 | 100 | 
13 | CCO/C(=C\Oc1ccc(CNC(=O)CC)cc1)C(F)(F)F [compound 150] | 0 | 33 | 
14 | CCO/C(=C\Oc1ccc(C(=O)NC(C)C)cc1)C(F)(F)F [compound 101] | 0 | 0 | 
15 | C=C(C)COC(=O)c1ccn(Cc2ccc(O/C=C(\OCC)C(F)(F)F)cc2)n1 [compound 358] | 0 | 100 | 
16 | FC(F)(F)c1nc(-c2ccc(OCC3(C(F)(F)F)OCCO3)cc2)no1 [compound 173] | 0 | 0 | 
17 | CC(C)COC(=O)NCc1ccc(OCC2(C(F)(F)F)OCCO2)cc1 [compound 112] | 0 | 0 | 
18 | CCO/C(=C\Oc1ccc(CN2CCC(OC)CC2)cc1)C(F)(F)F [compound 312] | 0 | 0 | 
19 | O=C(OCc1ccccc1)c1cnn(Cc2ccc(OCC(O)(O)C(F)(F)F)cc2)c1 [Compound 47] |  |  | Test B rating (disease control) ([1]; 50 ppm test suspension): 95%; Test A rating (disease control) ([2]; 50 ppm test suspension): 100%
20 | CCO/C(=C\Oc1ccc(Cn2cc(C(=O)O)cn2)cc1)C(F)(F)F [compound 116] | 0 | 100 | 
21 | CCO/C(=C\Oc1ccc(Cc2nc(C(=O)NCC(F)(F)F)cs2)cc1)C(F)(F)F [compound 129] | 0 | 100 | 
22 | CCOC(=O)c1cnn(COc2ccc(O/C=C(\OCC)C(F)(F)F)cc2)c1 [Compound 364, ethyl 1-[[4-[[(1Z)-2-ethoxy-3,3,3-trifluoro-1-propen-1-yl]oxy]phenoxy]methyl]-1H-pyrazole-4-carboxylate] |  |  | pest or weed control at 50 ppm ([1]; 50 ppm test suspension): 0%; pest or weed control at 50 ppm ([2]; Phakopsora pachyrhizi, 50 ppm test suspension): 100%
